Molecules are shown by their SMILES.

The target of this assay is T1, human lck SH2 domain (Homo sapiens, UniProt P06239).
T1 construct: Cloning and expression of human lck SH2 domain containing tags and an enterokinase proteolytic cleavage site; made in house; host or cells: E. coli AR120
Briefly: SH2 domain / pY peptide binding assay (ELISA-based, 96 well plate), lck SH2. Particulars: Ki calculated from IC50 by the expanded equation; Table II. The protocol: The inhibitory activity of compounds at the different human SH2 domains was determined in vitro using SH2 domains expressed as fusion proteins in E. coli. The SH2 domains used herein were the human forms of the src SH2 domain, Grb2 SH2 domain, lck SH2 domain, fyn SH2 domain, SH-PTP2 SH2 domain, p85 SH2 domain and hcp SH2 domain.
The fusion proteins containing the src, lck and hcp SH2 domains were expressed as the general sequence: DET1-DET2-spacer-ek-SH2, where DETI, DET2, spacer, ek and SH2 are as described below. DET1 ("defined epitope tag 1") (SEQ ID NO: 1) is an 11 amino acid sequence found in the Human Immunodeficiency Virus Type 1 (HIV-1) envelope protein gp120 (or gp160). Monoclonal antibodies to various epitopes of HIV-1 gp120 (or gp160) are known in the art, see, for example U.S. Patent 5,166,050. One preferred example is monoclonal antibody 178.1 (see, e.g., Thiriart et al., J. Immunol., 143:1832-1836 (1989)), which was prepared by immunization of mice with a yeast-expressed HIV-1 gp160 molecule from strain BH10 (Ratner et al., Nature, 313:277-284 (1985)). This tag was used for detection of expression (by Western blot), for purification of the protein (by affinity chromatography), and for configuring assays in which the fusion protein was captured or immobilized using the 178.1 antibody. DET2 is a hexahistidine sequence tag (SEQ ID NO: 2) which binds to nickel-containing resins and was used for purification purposes. Spacer (SEQ ID NO: 3) was utilized to design a BamH1 restriction site at the indicated position of the construct. The term -ekrefers to a recognition sequence (SEQ ID NO: 4) for the enterokinase protease which provides for the optional removal of the tags from the SH2 domain, thus producing an SH2 domain that contains no extraneous amino acids. SH2 domains which contain no extraneous amino acids are preferable to tagged protein for crystallography studies. SH2 refers to the SH2 domains of different proteins.
Cloning and expression of human lck SH2 domain containing tags and an enterokinase proteolytic cleavage site (DET1-DET2-spacer-ek-lck SH2).
A DNA sequence encoding protein ek-lck SH2 was PCR amplified from a cDNA clone containing the human lck gene (Genbank accession number M36881) using the following primers: [formula]
The PCR product was digested with BamHI and XbaI, followed by isolation of the digested fragment on an agarose gel. The fragment was ligated into BamHI-XbaI-digested expression vector containing the tagged chicken src gene DET1-DET2-spacer-SH2 described in Procedure 1 above. In that vector, the BamHI site is located in between the coding regions for DET2 and SH2, and the XbaI site is located after the 3' end of the SH2 coding region. Thus, the ek-lck SH2 sequence replaced the src SH2 sequence in the above vector. The ligation reaction was used to transform E. coli MM294cI^+. The construct containing […] was confirmed by DNA sequencing (SEQ ID NO: 6) and induced in E. coli strain AR120 as described in Procedure 1 above. A Coomassie-Blue-stained, Western-blot-positive induced protein band with an apparent molecular weight of 17,000 was observed after nalidixic acid induction.
Cells were lysed at neutral pH by sonication in the presance of lysozyme. After centrifugation, the soluble extract was chromatographed on a Ni^++NTA column. After washing the column with equilibration buffer (Tris buffer pH 8 containing 0.5 M NaCl) and the same buffer containing 15 mM imidazole, the protein was eluted in highly purified form with 25 mM imidazole in equilibration buffer.
The binding assays for the SH2 domains and pY peptides were performed in an ELISA-based 96 well plate assay. In Millipore 96 well filter plates, hydrophilic Durapore® (pore size 0.65um Cat. No. MADVN6550), was added 2 ul (50% suspension) of Protein-G Sepharose (available from Pharmacia of N.J. Cat. No. 17-0618-01) and either 2 ul of 2 mg/ml of MAB178. […]

T1 sequence (P06239 127-224 limits assumed): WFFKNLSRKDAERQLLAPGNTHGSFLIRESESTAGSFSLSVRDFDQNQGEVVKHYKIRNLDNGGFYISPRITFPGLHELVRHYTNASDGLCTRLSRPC

Regarding `CCCCCCNC(=O)[C@H]1CC[C@H](CNC(=O)c2ccc(C(=O)c3ccc(C(=O)O)cc3)cc2)CC1` [Compound 6, 4-carboxy-benzophenone-4-carboxamido-trans-4-methyl-cyclohexyl-N-hexyl carboxamide], the Ki is 50 µM.
